Laboratory results published in patent US11970450B2, “Multi-component crystals of an orally available HIF prolyl hydroxylase inhibitor” (Sandoz AG, priority 2018, dated 2024).
Where two headings read alike, the source gives them in different places.

Tests used:
[1] = Thermal stability by differential scanning calorimetry (DSC); format: physicochemical; conditions: for Thermal stability: Table 7 summary, temperature stress, DSC and TGA; for Thermal stability / DSC: thermal events / phase transformations before melting: 25 to 250° C. at 10 K/min; for DSC: thermal events / phase transformations before melting: nitrogen purge; for Physically stable toward temperature stress: no thermal events in DSC until start to melt at: DSC 10 K/min
Method: DSC was performed on a Mettler Polymer DSC R instrument. […] Nitrogen (purge rate 50 mL/min) was used as purge gas.

[2] = Thermogravimetric analysis (TGA) mass loss on heating; format: physicochemical; conditions: 10 K/min
Method: TGA was performed on a Mettler TGA/DSC 1 instrument. The samples (9.53 mg Form 1 and 8.16 mg Form 2, 8.12 mg 1,4-dioxane solvate) were heated in a 100 microliter aluminum pan closed with an aluminum lid. The lid was automatically pierced at the beginning of the measurement. The samples were heated from 25 to 250° C. at a rate of 10 K/min. Nitrogen (purge rate 50 mL/min) was used as purge gas.
Also, no significant mass loss is visible in the TGA curves of Form 1 and Form 2 until they melt.

[3] = cited from earlier work
[4] = up to a temperature of about 170° C.

C1COCCO1.O=C(O)CNC(=O)c1ncc(-c2cccc(Cl)c2)cc1O [Vadadustat 1,4-dioxane solvate, reference compound]
DSC onset of first broad endothermic peak (release of 1,4-dioxane from the crystal structure) ([1]; 10 K/min): about 78 °C | Thermal stability [1]: desolvation below 100 °C | Temperature at which TGA mass loss starts [2]: about 40 °C | TGA mass loss [2, 4]: about 19 weight %

O=C(O)CNC(=O)c1ncc(-c2cccc(Cl)c2)cc1O [Vadadustat L-proline form 1, vadadustat L-proline]
DSC: thermal events / phase transformations before melting ([1]; listed as vadadustat L-proline form 1): undergoes no desolvation or phase transformations but is stable until it melts | Physically stable toward temperature stress: no thermal events in DSC until start to melt at ([1]; listed as Form 1): about 170 °C | Thermal stability [1]: physically stable until melting at | TGA mass loss [2, 4]: about 0.20 weight %

O=C(O)CNC(=O)c1ncc(-c2cccc(Cl)c2)cc1O [Vadadustat L-proline form 2, vadadustat L-proline]
DSC: thermal events / phase transformations before melting ([1]; listed as vadadustat L-proline form 2): undergoes no phase transformations but is stable until it melts | Physically stable toward temperature stress: no thermal events in DSC until start to melt at ([1]; listed as Form 2): ~178 °C | TGA mass loss ([2]; up to a temperature of about 180° C.): about 0.15 weight %

O=C(O)CNC(=O)c1ncc(-c2cccc(Cl)c2)cc1O [Vadadustat hydrate]
Thermal stability ([3]; Table 7 summary, hydrate of WO 2018/108101 A1, temperature stress): dehydration below 100 °C | Physical stability upon temperature stress ([3]; background statement on hydrate CS2 of WO 2018/108101 A1): physically unstable upon temperature stress
